Measured values taken from ChEMBL document CHEMBL1221322, “Design, synthesis, and biological evaluation of new monoamine reuptake inhibitors with potential therapeutic utility in depression and pain” (Bioorg Med Chem Lett, 2010).

Key:
in vitro [1] = settings: human, Caco-2
physchem = settings: octanol/water
in vitro [2] = settings: human, Caco-2; remark: listed apart in the source
[3] = Volume of distribution at steady state in rat; format: ADME, organism-based; settings: in vivo, read-out: Vdss
[4] = Oral bioavailability in rat; format: ADME, organism-based; settings: in vivo

Structure (SMILES) | Papp A→B (in vitro [1]) | logD (physchem) | Papp B→A (in vitro [2]) | Vd [3] | bioavailability [4]
CCCC1(C(=O)c2ccc3[nH]ncc3c2)CCCN1 (stereo not drawn) | 29 ×10⁻⁶ cm/s | 1 | 16 ×10⁻⁶ cm/s | – | –
CC(C)CC1(C(=O)c2ccc3[nH]ncc3c2)CCCN1 (stereo not drawn) | 32 ×10⁻⁶ cm/s | 1 | 20 ×10⁻⁶ cm/s | – | –
CC(C)(C)CCC1(C(=O)c2ccc3[nH]ncc3c2)CCCN1 (stereo not drawn) | 20 ×10⁻⁶ cm/s | 2.03 | 12 ×10⁻⁶ cm/s | – | –
CCCC1(C(=O)c2ccc3[nH]ccc3c2)CCCN1 (stereo not drawn) | 41 ×10⁻⁶ cm/s | 1.45 | 10 ×10⁻⁶ cm/s | – | –
O=C(c1ccc2[nH]ccc2c1)C1(Cc2ccccc2)CCNC1 (stereo not drawn) | 17 ×10⁻⁶ cm/s | – | 19 ×10⁻⁶ cm/s | – | –
CC(C)OCC1(C(=O)c2ccc(N)c(Cl)c2)CCCN1 (single isomer, unassigned; (+)) | 30 ×10⁻⁶ cm/s | 0.84 | 18 ×10⁻⁶ cm/s | – | –
CC(C)(C)CCC1(C(=O)c2cc(F)c3[nH]ccc3c2)CCNC1 (single isomer, unassigned; (+)) | – | – | – | 14 L/kg | 5%
CC(C)(C)CCC1(C(=O)c2ccc(Cl)c(Cl)c2)CCNC1 (single isomer, unassigned; (+)) | – | – | – | 14.3 L/kg | 57%
CNCC[C@H](Oc1cccc2ccccc12)c1cccs1 [DULOXETINE] | – | – | – | 20.9 L/kg | 22%
